Experimental data taken from patent US11186589B2, “Cyanoindoline derivatives as NIK inhibitors” (Janssen Pharmaceutica NV, priority 2016, dated 2021).
Like-named read-outs stand apart in the source and are kept apart here.

What was measured:
NIK/MAP3K14 = NIK/MAP3K14 (Homo sapiens (Human), UniProt Q99558); assay: Inhibition of auto-phosphorylation of recombinant human NF-kappaB-inducing kinase (NIK/MAP3K14) activity (AlphaScreen); assay type: biochemical; conditions: averaged values over all measurements on all batches, 25 microM ATP
Method: Inhibition of Auto-Phosphorylation of Recombinant Human NF-kappaB-Inducing Kinase ([…]) Activity (AlphaScreen®)
NIK/MAP3K14 auto-phosphorylation activity was measured using the AlphaScreen® (αscreen) format (Perkin Elmer). All compounds tested were dissolved in dimethyl sulfoxide (DMSO) and further dilutions were made in assay buffer. Final DMSO concentration was […] in assays. Assay buffer was 50 mM Tris pH 7.5 containing 1 mM EGTA (ethylene glycol tetraacetic acid), 1 mM DTT (dithiothreitol), 0.1 mM Na3VO4, 5 mM MgCl2, 0.01% Tween® 20. Assays were carried out in 384 well Alphaplates (Perkin Elmer). Incubations consisted of compound, 25 microM Adenosine-5′-triphosphate (ATP), and 0.2 nM NIK/MAP3K14. Incubations were initiated by addition of GST-tagged NIK/MAP3K14 enzyme, carried out for 1 h at 25° C. and terminated by addition of stop buffer containing anti-phospho-[…] Ser176/180 antibody. Protein A Acceptor and Glutathione-Donor beads were added before reading using an EnVision® Multilabel Plate Reader (Perkin Elmer). Signal obtained in the wells containing blank samples was subtracted from all other wells and IC50's were determined by fitting a sigmoidal curve to % inhibition of control versus Log10 compound concentration.

JJN-3 cells = assay: Antiproliferative activity on JJN-3 (NIK translocated) multiple myeloma cells (CellTiter-Glo); assay type: cell-based, human; conditions: JJN-3 (NIK translocated) cells, 96 hr treatment, averaged values, read-out: JJN-3 Proliferation inhibition (IC50 (nM))
Method: (§1) Determination of Antiproliferative Activity on JJN-3 (NIK Translocated) and KMS12-BM (NIK WT) Multiple Myeloma Cells
(§2) All compounds tested were dissolved in DMSO and further dilutions were made in culture medium. Final DMSO concentration was 0.3% (v/v) in cell proliferation assays. Viability was assessed using CellTiter-Glo cell viability assay kit (Promega). The human JJN-3 and KMS12-BM cells (DSMZ) were cultured in RPMI 1640 medium supplemented with 2 mM L-glutamine, and 10% fetal calf serum (PAA). Cells were routinely kept as suspension cells at 37° C. in a humidified 5% CO2 atmosphere. Cells were passaged at a seeding density of 0.2×10^6/ml twice a week. Cells were seeded in black tissue culture treated 96-well plates (Perkin Elmer). Densities used for plating ranged from 15000 (JJN3) to 20000 (KMS12BM) cells per well in a total volume of […]. Drugs and/or solvents were added (15 μl) to a final volume of 150 μl. Following 96 hr of treatment, plates were removed from the incubator and allowed to equilibrate to room temperature for approx 10 min. 75 μl CellTiter-Glo reagent was added to each well that was then covered (Perkin Elmer Topseal) and shaken on plate shaker for 10 min. Luminescence was measured on a HTS Topcount (Perkin Elmer). Within an experiment, the results for each treatment were the mean of 2 replicate wells. For initial screening purposes, compounds were tested using a 9 point dilution curve (serial 1:3 dilutions). For each experiment, controls (containing no drug) and a blank incubation (containing cells read at the time of compound addition) were run in parallel. The blank value was subtracted from all control and sample values. For each sample, the mean value for cell growth (in relative light units) was expressed as a percentage of the mean value for cell growth of the control.

KMS12-BM cells = assay: Antiproliferative activity on KMS12-BM (NIK WT) multiple myeloma cells (CellTiter-Glo); assay type: cell-based, human; conditions: 96 hr treatment, averaged values, read-out: KMS-12 Proliferation inhibition (IC50 (nM))
Method: as §1, §2

NIK/MAP3K14, sequence (Q99558 whole entry): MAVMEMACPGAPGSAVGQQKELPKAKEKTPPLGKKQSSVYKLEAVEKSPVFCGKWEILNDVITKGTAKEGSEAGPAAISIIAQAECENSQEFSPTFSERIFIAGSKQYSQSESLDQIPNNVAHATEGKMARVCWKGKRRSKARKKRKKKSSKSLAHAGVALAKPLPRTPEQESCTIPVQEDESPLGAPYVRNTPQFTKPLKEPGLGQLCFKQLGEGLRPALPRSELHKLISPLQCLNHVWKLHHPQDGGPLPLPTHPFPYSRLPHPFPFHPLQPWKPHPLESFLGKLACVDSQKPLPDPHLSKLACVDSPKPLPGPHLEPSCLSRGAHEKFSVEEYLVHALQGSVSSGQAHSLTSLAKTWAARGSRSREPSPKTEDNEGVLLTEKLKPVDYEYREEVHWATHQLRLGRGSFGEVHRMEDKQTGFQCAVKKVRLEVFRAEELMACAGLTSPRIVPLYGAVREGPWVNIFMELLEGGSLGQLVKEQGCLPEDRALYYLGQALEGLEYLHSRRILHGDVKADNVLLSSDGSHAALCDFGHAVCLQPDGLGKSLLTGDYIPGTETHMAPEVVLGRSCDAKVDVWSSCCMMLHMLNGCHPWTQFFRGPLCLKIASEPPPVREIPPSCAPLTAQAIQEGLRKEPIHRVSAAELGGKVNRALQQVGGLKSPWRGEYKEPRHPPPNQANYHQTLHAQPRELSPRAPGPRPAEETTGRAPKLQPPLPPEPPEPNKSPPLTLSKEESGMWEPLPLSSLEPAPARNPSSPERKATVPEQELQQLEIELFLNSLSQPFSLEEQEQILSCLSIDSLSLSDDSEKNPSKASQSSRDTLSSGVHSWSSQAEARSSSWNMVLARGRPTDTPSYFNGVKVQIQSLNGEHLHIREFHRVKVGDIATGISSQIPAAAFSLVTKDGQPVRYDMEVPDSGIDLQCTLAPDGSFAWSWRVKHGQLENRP

| IC50 (NIK/MAP3K14) [nM] | IC50 (JJN-3 cells; Homo sapiens, JJN-3, 96 h) [nM] | IC50 (KMS12-BM cells; Homo sapiens, KMS-12-BM, 96 h) [nM] | IC50 (JJN-3 cells) [nM] | IC50 (KMS12-BM cells) [nM] | Compound |
| --- | --- | --- | --- | --- | --- |
| 1.9 | 21 | 151 |  |  | CC1(CO)CNc2c(C#N)cc(-c3ccnc(Nc4ccc5c(c4)CC(CO)OC5)n3)cc21 (single isomer, unassigned) [Compound 5] |
| 2 |  |  | 41 | 162 | CC1(CO)CNc2c(C#N)cc(-c3ccnc(Nc4ccc5c(c4)CC(CO)OC5)n3)cc21 (single isomer, unassigned) [Compound 8] |
| 5.9 | 96 | 550 |  |  | CC1(CO)CNc2c(C#N)cc(-c3ccnc(Nc4ccc5c(c4)CCCO5)n3)cc21 (stereo not shown) [Compound 1] |
| 4.3 | 112 | ~177 |  |  | CC1(C)CNc2c(C#N)cc(-c3ccnc(Nc4cccc5c4CNC5)n3)cc21 [Compound 2] |
| 1.4 | ~24 | 85 |  |  | CN1CCc2ccc(Nc3nccc(-c4cc(C#N)c5c(c4)C(C)(CO)CN5)n3)cc2CC1 (stereo not shown) [Compound 3] |
| 26.9 | 107 | > 10000 |  |  | CC1(CO)CNc2c(C#N)cc(-c3ccnc(Nc4cc(Cl)cc5c4OCCC5)n3)cc21 (stereo not shown) [Compound 4] |
| 8.5 | 1900 | ~6460 |  |  | Cn1nc2c(c1Nc1nccc(-c3cc(C#N)c4c(c3)C(C)(CO)CN4)n1)CCC2 (stereo not shown) [Compound 4b] |
| 9.6 | 9 | ~1020 |  |  | CC1(CO)CNc2c(C#N)cc(-c3ccnc(Nc4cc(Cl)cc5c4ccn5CCN4CCOCC4)n3)cc21 (stereo not shown) [Compound 4c] |
| 20.4 | 468 | > 10000 |  |  | Cn1nc(Nc2nccc(-c3cc(C#N)c4c(c3)C(C)(CO)CN4)n2)c2c1CCC2 (stereo not shown) [Compound 5b] |
| 12 | 23 | ~692 |  |  | CC1(CO)CNc2c(C#N)cc(-c3ccnc(Nc4cc(Cl)cc5c4ccn5CCCN4CCOCC4)n3)cc21 (stereo not shown) [Compound 5c] |
| 12.6 | 263 | 794 |  |  | CC1(C)CNc2c(C#N)cc(-c3ccnc(Nc4cccc5c4CNCC5)n3)cc21 [Compound 6] |
| 5.9 | 398 | ~851 |  |  | CC1OCCn2nc(Nc3nccc(-c4cc(C#N)c5c(c4)C(C)(CO)CN5)n3)cc21 (stereo not shown) [Compound 6b] |
| 34.8 | 10 | 1620 |  |  | COCCCn1ccc2c(Nc3nccc(-c4cc(C#N)c5c(c4)C(C)(CO)CN5)n3)cc(Cl)cc21 (stereo not shown) [Compound 6c] |
| 5.9 | 48 | 525 |  |  | CC1(CO)CNc2c(C#N)cc(-c3ccnc(Nc4ccc5c(c4)C(F)(F)CCO5)n3)cc21 (stereo not shown) [Compound 7] |
| 11.8 | 1700 | 6310 |  |  | CC1(CO)CNc2c(C#N)cc(-c3ccnc(Nc4cc5n(n4)CCOC5)n3)cc21 (stereo not shown) [Compound 7b] |
| 4 | 1150 | 6170 |  |  | CN1Cc2cc(Nc3nccc(-c4cc(C#N)c5c(c4)C(C)(CO)CN5)n3)nn2CC1=O (stereo not shown) [Compound 8b] |
| 38 | 85 | > 10000 |  |  | CC1(C)CNc2c(C#N)cc(-c3ccnc(Nc4cc(F)cc5[nH]ccc45)n3)cc21 [Compound 8c] |
| 2 | 25 | ~2750 |  |  | CC(=O)N1CCc2c(C)c(Nc3nccc(-c4cc(C#N)c5c(c4)C(C)(CO)CN5)n3)cc(Cl)c21 (stereo not shown) [Compound 9] |
| 6.8 | 204 | 1660 |  |  | CN1CCn2nc(Nc3nccc(-c4cc(C#N)c5c(c4)C(C)(CO)CN5)n3)cc2C1 (stereo not shown) [Compound 9b] |

| IC50 (NIK/MAP3K14) [nM] | IC50 (JJN-3 cells; Homo sapiens, JJN-3, 96 h) [nM] | IC50 (KMS12-BM cells; Homo sapiens, KMS-12-BM, 96 h) [nM] | IC50 (JJN-3 cells) [nM] | IC50 (KMS12-BM cells) [nM] | Compound |
| --- | --- | --- | --- | --- | --- |
| 10.5 | 1180 | 5620 |  |  | Cc1c(Nc2nccc(-c3cc(C#N)c4c(c3)C(C)(CO)CN4)n2)cc(Cl)c2[nH]ccc12 (stereo not shown) [Compound 9c] |
| 4.9 | 42 | ~5750 |  |  | CC1(CO)CNc2c(C#N)cc(-c3ccnc(Nc4cc(Cl)cc5c4CCN5)n3)cc21 (stereo not shown) [Compound 10] |
| 9.6 | 1020 | 2400 |  |  | CC1(C)Cn2nc(Nc3nccc(-c4cc(C#N)c5c(c4)C(C)(CO)CN5)n3)cc2CO1 (stereo not shown) [Compound 10b] |
| 4.3 | 63 | > 10000 |  |  | COc1nc2c(ccn2CC(=O)N(C)C)cc1Nc1nccc(-c2cc(C#N)c3c(c2)[C@@](C)(CO)CN3)n1 [Compound 10c] |
| 9.1 | 36 |  |  | 1180 | CN(C)C(=O)C1COc2c(cc(Cl)cc2Nc2nccc(-c3cc(C#N)c4c(c3)[C@@](C)(CO)CN4)n2)C1 (stereo partly shown) [Compound 11] |
| 39.8 | 1580 | ~1820 |  |  | COCCn1nc2c(c1Nc1nccc(-c3cc(C#N)c4c(c3)[C@@](C)(CO)CN4)n1)CCC2 [Compound 11b] |
| 4.3 | 16 | 427 |  |  | CNC(=O)CCn1ccc2c(Nc3nccc(-c4cc(C#N)c5c(c4)C(C)(CO)CN5)n3)cc(Cl)cc21 (stereo not shown) [Compound 11c] |
| 14.1 |  |  | 22 | ~6610 | CN(C)C(=O)C1COc2c(cc(Cl)cc2Nc2nccc(-c3cc(C#N)c4c(c3)[C@@](C)(CO)CN4)n2)C1 (stereo partly shown) [Compound 12] |
| 1.3 | 18 | ~3550 |  |  | CN(C)CC(=O)N1CCc2c(Nc3nccc(-c4cc(C#N)c5c(c4)[C@@](C)(CO)CN5)n3)cc(Cl)cc21 [Compound 13] |
| 3 | 54 | 251 |  |  | CNC(=O)CN1CCc2c(Nc3nccc(-c4cc(C#N)c5c(c4)C(C)(CO)CN5)n3)cc(Cl)cc21 (stereo not shown) [Compound 14] |
| 5.6 | 63 | > 10000 |  |  | COCCn1ccc2cc(Nc3nccc(-c4cc(C#N)c5c(c4)[C@@](C)(CO)CN5)n3)c(OC)nc21 [Compound 14c] |
| 2.5 | 89 | 96 |  |  | Cc1c(Nc2nccc(-c3cc(C#N)c4c(c3)[C@@](C)(CO)CN4)n2)ccc2c1CCN2C(=O)CN(C)C [Compound 15] |
| 1.6 | 26 | ~339 |  |  | Cc1c(Nc2nccc(-c3cc(C#N)c4c(c3)[C@@](C)(CO)CN4)n2)cc(Cl)c2c1CCN2C(=O)CN(C)C [Compound 16] |
| 363 |  |  |  |  | CC(C)c1c(Nc2nccc(-c3cc(C#N)c4c(c3)[C@@](C)(CO)CN4)n2)nn2c1CN(C)CC2 [Compound 16b] |
| 3.3 |  |  | 5 | 182 | CN(C)C1COc2c(cc(Cl)cc2Nc2nccc(-c3cc(C#N)c4c(c3)[C@@](C)(CO)CN4)n2)C1 (stereo partly shown) [Compound 17] |
| 5 | 6 | ~692 |  |  | CN(C)C(=O)C(=O)N1CCc2c(Nc3nccc(-c4cc(C#N)c5c(c4)[C@@](C)(CO)CN5)n3)cc(Cl)cc21 [Compound 19] |
| 20.4 | 372 | 1480 |  |  | COCCCc1cc2c(cc1Nc1nccc(-c3cc(C#N)c4c(c3)[C@@](C)(CO)CN4)n1)CCN(C)CC2 [Compound 20] |
| 2.7 | ~60 | ~186 |  |  | CC1(CO)CNc2c(C#N)cc(-c3ccnc(Nc4cnc5c(c4)COCC5)n3)cc21 (stereo not shown) [Compound 45] |
| 17.4 | 11200 | > 10000 |  |  | CN1CCc2[nH]c(=O)c(Nc3nccc(-c4cc(C#N)c5c(c4)C(C)(CC(F)F)CN5)n3)cc2C1 (stereo not shown) [Compound 57] |
